Experimental data from patent US20110112160A1, “TABLET COMPRISING EPROSARTAN MESYLATE” (LEK PHARMACEUTICALS D.D., priority 2008, published 2011).

What was measured:
Flowability = type: physicochemical; details: drug per se; with sticking on punches
[1] = background art; cited from earlier work
[2] = at pH 2; typically; cited from earlier work
[3] = Hygroscopicity and interconversion of forms at high relative humidity; type: physicochemical; details: at RH over 60%
Source text: Eprosartan mesylate is hygroscopic (at RH over 60%).

intestinal epithelium = details: background art; cited from earlier work
[4] = Physical stability, form of eprosartan mesylate by X-ray diffraction (XRD); type: physicochemical; details: at ambient temperature and humidity
Procedure: During the dry granulation processes using different excipients from the list above, physical stability of the eprosartan mesylate anhydrate was investigated. […] The final tablet form and placebo powder were analyzed by X-ray diffraction (XRD) pattern to confirm presence of anhydrous form of eprosartan mesylate.
Diffractograms were collected on X'Pert PRO MPD diffractometer using CuKα radiation. Data were recorded from 2 do 40°2θ; in steps of 0.033°2θ; with the integration times 50 s (routine testing) and from 4 do 20°2θ; in steps of 0.033°2θ; with the integration times 2000 s (to achieve lower LOD). The range for measurements with longer integration times was chosen according to the known diffractograms of eprosartan mesylate crystalline forms, which all have characteristic peaks in the carefully measured range between 4 and 20°2theta.

Compound | flowability (Flowability) | bioavailability [1] [%] | solubility [2] | hygroscopicity [3] | permeability across the intestinal epithelium (intestinal epithelium) | physical and chemical stability [4] | interconversion of form [3]
CCCCc1ncc(/C=C(\Cc2cccs2)C(=O)O)n1Cc1ccc(C(=O)O)cc1.CS(=O)(=O)O [eprosartan mesylate, (E)-α-[2-n-butyl-1-[(4-carboxyphenyl)methyl]-1H-imidazol-5-yl]methylene-2-thiophenepropionic acid monomethanesulfonate] | below 0.15 g/sec | 13 | less than 0.1 mg/ml | hygroscopic | low permeability | – | –
CCCCc1ncc(/C=C(\Cc2cccs2)C(=O)O)n1Cc1ccc(C(=O)O)cc1.CS(=O)(=O)O [Eprosartan mesylate in anhydrous form] | – | – | – | – | – | physically and chemically stable | interconverts to eprosartan mesylate mono- and later to dihydrate
